Data from article PMC12073402, “A Selective MAP3K1 Inhibitor Facilitates Discovery of NPM1 as a Member of the Network” (Molecules, 2025).

Experiments:
Test in all cases: KiNativ kinome profiling in PANC-1 lysate
Assay type in all cases: binding
PLK2 = target: T1, PLK2 (Homo sapiens, UniProt Q9NYY3); details: Lys2
T1 construct: endogenous in cells; host or cells: PANC-1 cell lysate
Excerpt: (§1) To assess target engagement and selectivity, we opted to conduct a kinome screen (KiNativ) in PANC-1 cell lysates. This chemical proteomics (chemoproteomics) methodology allows for the evaluation of small-molecule binding to protein kinases in native systems such as cell lysates. KiNativ utilizes a soluble chemical probe comprising ATP linked to biotin through an acyl-phosphate bond. The probe covalently modifies conserved lysine residues found in the ATP binding site of essentially all protein kinases (Figure 2A). To profile a kinase inhibitor, cell lysates are treated with a vehicle control or inhibitor prior to addition of the desthiobiotin ATP probe. The ATP probe occupies the ATP binding site in the kinase, which enables the conserved lysines to be biotinylated. […] The cell lysates are digested with a protease (trypsin), biotinylated peptides are affinity-enriched on streptavidin beads, and the labeled peptides are analyzed by liquid chromatography–tandem MS (Figure 2B). If an inhibitor binds to a kinase, it competes with the ATP, thus resulting in a loss of that kinase-associated peptide signal, allowing for the quantitative measurement of inhibitor binding. Unlike recombinant enzyme assays, KiNativ IC50 values are a direct measure of active site binding instead of enzymatic activity.
(§2) Kinome profiling quantified the activity of 51-106 against >300 kinases in the PANC-1 cells. The results summarized in Figure 2C are the average of duplicate control and duplicate treated samples with 5 μM of 51-106 or DMSO.
(§3) KiNativ assay with 51-106.
(§4) ATP Loop: ATP binding loop
(§5) Activation Loop: Activation loop
(§6) ATP: ATP site in non-canonical kinase (e.g. lipid kinase)
(§7) Protein Kinase Domain: Other lysine within kinase domain, possibly not in ATP binding site
(§8) Other: Labeling of residue outside of the protein kinase domain, possibly not in ATP binding site
(§9) No change. NB = No Binding (≤ 0)
(§10) >100% increase in MS signal (>2 fold increase)
(§11) Data points inhibited […] & not considered significant are left uncolored
(§12) Note: This KiNativ dataset is the result of an analysis of duplicate treated samples and control samples.
(§13) The % changes in MS signals being reported are statistically significant (Student T -test score < 0.04)

AGK = target: T2, AGK (Homo sapiens, UniProt Q53H12); details: ATP
T2 construct: endogenous in cells; host or cells: PANC-1 cell lysate
Excerpt: as §1, §2, §3, §4, §5, §6, §7, §8, §9, §10, §11, §12, §13

PKCd = target: T3, PKCd (Homo sapiens, UniProt Q05655)
T3 construct: endogenous in cells; host or cells: PANC-1 cell lysate
Excerpt: as §1, §2, §3, §4, §5, §6, §7, §8, §9, §10, §11, §12, §13

Wee1 = target: T4, Wee1 (Homo sapiens, UniProt P30291); details: Lys2
T4 construct: endogenous in cells; host or cells: PANC-1 cell lysate
Excerpt: as §1, §2, §3, §4, §5, §6, §7, §8, §9, §10, §11, §12, §13

PIK3CB = target: T5, PIK3CB (Homo sapiens, UniProt P42338); details: ATP
T5 construct: endogenous in cells; host or cells: PANC-1 cell lysate
Excerpt: as §1, §2, §3, §4, §5, §6, §7, §8, §9, §10, §11, §12, §13

HER3/ErbB3 = target: T6, HER3/ErbB3 (Homo sapiens, UniProt P21860)
T6 construct: we opted to conduct a kinome screen (KiNativ) in PANC-1 cell lysates; endogenous in cells; host or cells: PANC-1 cell lysate
T6 sequence (P21860 20-1342): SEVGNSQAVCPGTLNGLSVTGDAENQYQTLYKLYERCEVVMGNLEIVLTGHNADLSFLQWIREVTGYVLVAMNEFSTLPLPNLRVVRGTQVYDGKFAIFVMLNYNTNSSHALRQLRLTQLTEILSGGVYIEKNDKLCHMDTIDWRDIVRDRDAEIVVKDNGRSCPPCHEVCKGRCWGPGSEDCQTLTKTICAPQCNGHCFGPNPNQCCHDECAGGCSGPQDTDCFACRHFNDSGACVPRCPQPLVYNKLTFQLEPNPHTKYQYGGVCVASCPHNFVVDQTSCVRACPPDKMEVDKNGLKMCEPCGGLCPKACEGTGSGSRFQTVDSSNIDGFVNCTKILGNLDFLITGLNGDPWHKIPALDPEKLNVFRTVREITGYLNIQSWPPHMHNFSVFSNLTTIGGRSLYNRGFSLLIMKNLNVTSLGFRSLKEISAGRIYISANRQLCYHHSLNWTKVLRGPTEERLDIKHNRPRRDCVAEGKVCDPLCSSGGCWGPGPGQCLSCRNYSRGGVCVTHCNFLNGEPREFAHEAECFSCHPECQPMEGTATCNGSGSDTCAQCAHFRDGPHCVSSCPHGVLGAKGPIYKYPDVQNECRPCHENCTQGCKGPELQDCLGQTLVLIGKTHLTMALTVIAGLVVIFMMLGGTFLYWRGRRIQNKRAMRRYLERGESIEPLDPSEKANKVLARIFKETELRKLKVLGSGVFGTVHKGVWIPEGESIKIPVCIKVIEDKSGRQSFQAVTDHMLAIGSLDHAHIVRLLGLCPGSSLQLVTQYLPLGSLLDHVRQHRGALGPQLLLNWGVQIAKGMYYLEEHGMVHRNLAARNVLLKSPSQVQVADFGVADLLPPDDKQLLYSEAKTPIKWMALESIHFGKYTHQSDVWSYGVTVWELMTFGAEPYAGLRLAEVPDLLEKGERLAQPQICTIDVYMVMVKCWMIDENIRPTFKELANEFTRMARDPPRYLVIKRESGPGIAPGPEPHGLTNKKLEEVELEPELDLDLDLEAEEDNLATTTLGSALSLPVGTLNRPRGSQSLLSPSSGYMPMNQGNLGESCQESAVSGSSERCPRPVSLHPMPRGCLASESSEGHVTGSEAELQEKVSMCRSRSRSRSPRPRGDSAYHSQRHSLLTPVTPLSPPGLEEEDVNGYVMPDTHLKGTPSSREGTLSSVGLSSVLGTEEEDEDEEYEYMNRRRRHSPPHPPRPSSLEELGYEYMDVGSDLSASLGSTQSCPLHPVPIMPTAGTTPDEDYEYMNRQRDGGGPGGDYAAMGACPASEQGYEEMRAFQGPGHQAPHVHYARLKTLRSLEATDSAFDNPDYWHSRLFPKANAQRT
Excerpt: as §1, §2, §3, §4, §5, §6, §7, §8, §9, §10, §11, §12, §13

TAO1, TAO3 = details: 5 µM; Lys2; DIKAGNILLTEPGQVK
Excerpt: as §1, §2, §3, §4, §5, §6, §7, §8, §9, §10, §11, §12, §13

PKCi = target: T7, PKCi (Homo sapiens, UniProt P41743)
T7 construct: endogenous in cells; host or cells: PANC-1 cell lysate
T7 sequence (P41743 whole entry): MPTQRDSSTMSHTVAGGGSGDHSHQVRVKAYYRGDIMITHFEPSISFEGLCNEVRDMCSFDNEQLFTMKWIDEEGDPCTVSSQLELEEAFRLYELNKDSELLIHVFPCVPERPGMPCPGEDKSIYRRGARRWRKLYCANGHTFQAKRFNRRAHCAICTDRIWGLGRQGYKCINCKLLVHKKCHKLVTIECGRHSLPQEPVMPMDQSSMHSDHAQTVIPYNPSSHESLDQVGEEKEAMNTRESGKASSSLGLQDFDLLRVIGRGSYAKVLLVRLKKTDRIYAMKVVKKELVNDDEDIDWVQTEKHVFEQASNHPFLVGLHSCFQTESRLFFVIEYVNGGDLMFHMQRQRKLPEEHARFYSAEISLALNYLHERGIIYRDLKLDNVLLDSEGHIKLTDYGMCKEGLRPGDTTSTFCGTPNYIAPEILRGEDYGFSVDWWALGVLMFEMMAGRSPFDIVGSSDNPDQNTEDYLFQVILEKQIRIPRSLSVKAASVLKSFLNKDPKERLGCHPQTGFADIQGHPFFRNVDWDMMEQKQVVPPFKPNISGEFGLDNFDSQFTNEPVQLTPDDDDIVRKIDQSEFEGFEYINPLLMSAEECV
Excerpt: as §1, §2, §3, §4, §5, §6, §7, §8, §9, §10, §11, §12, §13

MELK = target: T8, MELK (Homo sapiens, UniProt Q14680); details: Lys2
T8 construct: endogenous in cells; host or cells: PANC-1
Excerpt: as §1, §2, §3, §4, §5, §6, §7, §8, §9, §10, §11, §12, §13

MAP3K3 = target: T9, MAP3K3 (Homo sapiens, UniProt Q99759); details: Lys1
T9 construct: endogenous in cells; host or cells: PANC-1 cell lysate
Excerpt: as §1, §2, §3, §4, §5, §6, §7, §8, §9, §10, §11, §12, §13

[1] = test system: ZC1/HGK, ZC2/TNIK, ZC3/MINK; details: 5 µM; Lys2; DIKGQNVLLTENAEVK
Excerpt: as §1, §2, §3, §4, §5, §6, §7, §8, §9, §10, §11, §12, §13

PIK3CA = target: T10, PIK3CA (Homo sapiens, UniProt P42336); details: ATP
T10 construct: endogenous in cells; host or cells: PANC-1 cell lysate
Excerpt: as §1, §2, §3, §4, §5, §6, §7, §8, §9, §10, §11, §12, §13

SMG1 = target: T11, SMG1 (Homo sapiens, UniProt Q96Q15); details: ATP
T11 construct: endogenous in cells; host or cells: PANC-1 cell lysate
Excerpt: as §1, §2, §3, §4, §5, §6, §7, §8, §9, §10, §11, §12, §13

MER, TYRO3 = details: 5 µM; ATP Loop; KIYSGDYYR
Excerpt: as §1, §2, §3, §4, §5, §6, §7, §8, §9, §10, §11, §12, §13

MAP3K6 = target: T12, MAP3K6 (Homo sapiens, UniProt O95382)
T12 construct: endogenous in cells; host or cells: PANC-1 cell lysate
T12 sequence (O95382 whole entry): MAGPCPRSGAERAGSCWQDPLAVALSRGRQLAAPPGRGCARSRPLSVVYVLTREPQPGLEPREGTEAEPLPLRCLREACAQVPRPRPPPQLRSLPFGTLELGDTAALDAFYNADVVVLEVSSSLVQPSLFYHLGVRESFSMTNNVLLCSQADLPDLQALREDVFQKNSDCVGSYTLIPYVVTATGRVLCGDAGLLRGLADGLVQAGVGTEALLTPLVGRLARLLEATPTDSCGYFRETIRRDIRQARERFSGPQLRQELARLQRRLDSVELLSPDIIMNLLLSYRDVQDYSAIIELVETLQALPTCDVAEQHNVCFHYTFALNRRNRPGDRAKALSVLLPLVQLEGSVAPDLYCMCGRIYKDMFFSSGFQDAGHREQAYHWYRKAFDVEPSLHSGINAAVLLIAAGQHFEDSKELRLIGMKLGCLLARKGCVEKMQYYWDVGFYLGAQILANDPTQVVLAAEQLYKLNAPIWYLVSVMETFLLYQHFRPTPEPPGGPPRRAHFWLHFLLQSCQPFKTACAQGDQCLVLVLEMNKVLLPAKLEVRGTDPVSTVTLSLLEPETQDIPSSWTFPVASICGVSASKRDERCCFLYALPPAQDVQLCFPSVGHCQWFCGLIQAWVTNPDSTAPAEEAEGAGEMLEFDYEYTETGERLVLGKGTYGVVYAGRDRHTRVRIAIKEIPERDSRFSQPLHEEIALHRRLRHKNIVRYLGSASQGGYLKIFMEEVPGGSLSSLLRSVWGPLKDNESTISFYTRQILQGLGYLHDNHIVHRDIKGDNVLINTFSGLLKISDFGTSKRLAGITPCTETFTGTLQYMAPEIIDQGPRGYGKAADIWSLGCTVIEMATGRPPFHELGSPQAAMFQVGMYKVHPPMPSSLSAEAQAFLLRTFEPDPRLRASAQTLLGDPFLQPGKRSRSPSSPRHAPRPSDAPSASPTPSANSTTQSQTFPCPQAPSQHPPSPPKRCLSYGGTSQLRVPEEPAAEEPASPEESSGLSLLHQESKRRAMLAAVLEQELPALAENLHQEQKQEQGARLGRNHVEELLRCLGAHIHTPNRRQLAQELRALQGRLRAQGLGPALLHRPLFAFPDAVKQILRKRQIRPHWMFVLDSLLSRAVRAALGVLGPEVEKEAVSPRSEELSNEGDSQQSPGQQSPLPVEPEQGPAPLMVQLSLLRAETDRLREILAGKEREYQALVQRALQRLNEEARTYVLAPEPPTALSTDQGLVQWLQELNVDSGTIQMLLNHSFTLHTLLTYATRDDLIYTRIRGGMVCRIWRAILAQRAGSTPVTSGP
Excerpt: as §1, §2, §3, §4, §5, §6, §7, §8, §9, §10, §11, §12, §13

p38d, p38g = details: 5 µM; Lys2; DLKPGNLAVNEDCELK
Excerpt: as §1, §2, §3, §4, §5, §6, §7, §8, §9, §10, §11, §12, §13

NDR1, NDR2 = details: 5 µM; ATP Loop; LSDFGLCTGLKK
Excerpt: as §1, §2, §3, §4, §5, §6, §7, §8, §9, §10, §11, §12, §13

NEK2 = target: T13, NEK2 (Homo sapiens, UniProt P51955); details: Lys2
T13 construct: endogenous in cells; host or cells: PANC-1 cell lysate
Excerpt: as §1, §2, §3, §4, §5, §6, §7, §8, §9, §10, §11, §12, §13

PIP5K1A = target: T14, PIP5K1A (Homo sapiens, UniProt Q99755); details: ATP
T14 construct: endogenous in cells; host or cells: PANC-1 cell lysate
Excerpt: as §1, §2, §3, §4, §5, §6, §7, §8, §9, §10, §11, §12, §13

PI4KB = target: T15, PI4KB (Homo sapiens, UniProt Q9UBF8); details: ATP
T15 construct: endogenous in cells; host or cells: PANC-1 cell lysate
Excerpt: as §1, §2, §3, §4, §5, §6, §7, §8, §9, §10, §11, §12, §13

FRAP = target: T16, FRAP (Homo sapiens, UniProt P42345); details: ATP
T16 construct: endogenous in cells; host or cells: PANC-1 lysate
Excerpt: as §1, §2, §3, §4, §5, §6, §7, §8, §9, §10, §11, §12, §13

PKCa, PKCg = details: 5 µM; Other; NLIPMDPNGLSDPYVKLK
Excerpt: as §1, §2, §3, §4, §5, §6, §7, §8, §9, §10, §11, §12, §13

MAP3K4 = target: T17, MAP3K4 (Homo sapiens, UniProt Q9Y6R4)
T17 construct: endogenous in cells; host or cells: PANC-1 cell lysate
T17 sequence (Q9Y6R4 whole entry): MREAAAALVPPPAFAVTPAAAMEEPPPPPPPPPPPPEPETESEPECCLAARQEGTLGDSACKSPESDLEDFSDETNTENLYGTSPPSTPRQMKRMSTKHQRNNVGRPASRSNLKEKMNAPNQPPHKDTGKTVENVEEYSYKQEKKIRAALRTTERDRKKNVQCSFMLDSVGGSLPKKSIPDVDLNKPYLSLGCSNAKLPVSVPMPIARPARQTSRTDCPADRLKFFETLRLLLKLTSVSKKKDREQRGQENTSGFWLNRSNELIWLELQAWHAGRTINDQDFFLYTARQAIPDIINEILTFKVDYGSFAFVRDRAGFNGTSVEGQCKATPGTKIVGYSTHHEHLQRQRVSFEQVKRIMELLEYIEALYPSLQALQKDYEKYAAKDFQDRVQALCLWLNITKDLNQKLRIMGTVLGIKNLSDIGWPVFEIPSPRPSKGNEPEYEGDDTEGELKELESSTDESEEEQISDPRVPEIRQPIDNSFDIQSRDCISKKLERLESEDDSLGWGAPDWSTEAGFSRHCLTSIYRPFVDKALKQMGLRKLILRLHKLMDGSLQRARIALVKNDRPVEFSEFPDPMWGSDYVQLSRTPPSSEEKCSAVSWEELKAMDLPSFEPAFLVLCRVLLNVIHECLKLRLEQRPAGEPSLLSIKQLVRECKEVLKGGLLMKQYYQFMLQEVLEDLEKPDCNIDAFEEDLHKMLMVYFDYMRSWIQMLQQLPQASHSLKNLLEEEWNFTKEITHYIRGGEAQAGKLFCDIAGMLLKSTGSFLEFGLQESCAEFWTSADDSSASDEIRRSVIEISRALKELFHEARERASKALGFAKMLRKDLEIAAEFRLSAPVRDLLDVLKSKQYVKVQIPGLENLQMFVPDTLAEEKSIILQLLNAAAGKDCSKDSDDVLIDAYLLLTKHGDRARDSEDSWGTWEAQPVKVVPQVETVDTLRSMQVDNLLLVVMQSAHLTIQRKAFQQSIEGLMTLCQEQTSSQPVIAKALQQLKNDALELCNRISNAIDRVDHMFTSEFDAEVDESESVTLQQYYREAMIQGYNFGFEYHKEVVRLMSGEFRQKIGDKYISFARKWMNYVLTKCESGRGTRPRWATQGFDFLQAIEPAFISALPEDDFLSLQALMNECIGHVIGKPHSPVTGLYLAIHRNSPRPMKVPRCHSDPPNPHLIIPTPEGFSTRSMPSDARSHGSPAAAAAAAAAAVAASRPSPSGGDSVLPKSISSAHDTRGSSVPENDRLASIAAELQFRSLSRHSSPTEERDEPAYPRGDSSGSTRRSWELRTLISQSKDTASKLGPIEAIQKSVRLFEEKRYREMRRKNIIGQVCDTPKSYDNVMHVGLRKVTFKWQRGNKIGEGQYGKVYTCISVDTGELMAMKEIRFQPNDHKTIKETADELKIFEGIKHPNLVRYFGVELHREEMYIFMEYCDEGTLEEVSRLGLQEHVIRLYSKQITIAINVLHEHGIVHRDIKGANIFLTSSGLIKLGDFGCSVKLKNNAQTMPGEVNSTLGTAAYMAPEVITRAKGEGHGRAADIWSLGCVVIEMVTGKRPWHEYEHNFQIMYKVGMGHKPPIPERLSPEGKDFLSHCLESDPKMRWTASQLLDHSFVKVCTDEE
Excerpt: as §1, §2, §3, §4, §5, §6, §7, §8, §9, §10, §11, §12, §13

TNK1 = target: T18, TNK1 (Homo sapiens, UniProt Q13470); details: Lys1
T18 construct: endogenous in cells; host or cells: PANC-1 cell lysate
Excerpt: as §1, §2, §3, §4, §5, §6, §7, §8, §9, §10, §11, §12, §13

NuaK1 = target: T19, NuaK1 (Homo sapiens, UniProt O60285); details: Lys1
T19 construct: endogenous in cells; host or cells: PANC-1 cell lysate
Excerpt: as §1, §2, §3, §4, §5, §6, §7, §8, §9, §10, §11, §12, §13

## Cn1cc(-c2cnc3ccc(NC(=O)Nc4ccc(F)c(C(F)(F)F)c4)cc3n2)cn1 [51-106, 1-(4-Fluoro-3-(trifluoromethyl)phenyl)-3-(3-(1-methyl-1H-pyrazol-4-yl)quinoxalin-6-yl)urea]
PLK2
  inhibition at 5 µM: 1.4%
AGK
  inhibition at 5 µM: ≤ 0%
PKCd; Lys2, DLKLDNVLLDR
  inhibition at 5 µM: 0.4%
PKCd; Other, KPTMYPEWK
  inhibition at 5 µM: ≤ 0%
Wee1
  inhibition at 5 µM: 2.2%
PIK3CB; VFGEDSVGVIFKNGDDLR
  inhibition at 5 µM: 1.7%
PIK3CB; VFGEDSVGVIFKNGDDLRQDMLTLQMLR
  inhibition at 5 µM: 31.4%
HER3/ErbB3; ATP Loop, SPSQVQVADFGVADLLPPDDKQLLYSEAKTPIK
  inhibition at 5 µM: 2%
HER3/ErbB3; Lys1, GVWIPEGESIKIPVCIKVIEDK
  inhibition at 5 µM: ≤ 0%
TAO1, TAO3
  % Inhibition: 4.9%
PKCi; 5 µM, Lys2, DLKLDNVLLDSEGHIK
  % Inhibition: NB (NB = No Binding (≤ 0))
PKCi; Lys1, […]
  inhibition at 5 µM: ≤ 0%
MELK
  inhibition at 5 µM: ≤ 0%
MAP3K3
  inhibition at 5 µM: 11.4%
[1]
  % Inhibition: NB (NB = No Binding (≤ 0))
PIK3CA
  inhibition at 5 µM: ≤ 0%
SMG1; 5 µM, DTVTIHSVGGTITILPTKTKPK
  % Inhibition: NB (NB = No Binding (≤ 0))
SMG1; […]
  inhibition at 5 µM: ≤ 0%
MER, TYRO3
  % Inhibition: NB (NB = No Binding (≤ 0))
MAP3K6; 5 µM, Lys2, […]
  inhibition at 5 µM: ≤ 0%
MAP3K6; 5 μM, PANC-1 lysate
  inhibition of MAP3K6 (in words): did not inhibit
p38d, p38g
  % Inhibition: NB (NB = No Binding (≤ 0))
NDR1, NDR2
  % Inhibition: NB (NB = No Binding (≤ 0))
NEK2
  inhibition at 5 µM: ≤ 0%
PIP5K1A
  inhibition at 5 µM: 8.7%
PI4KB; LLSVIVKCGDDLRQELLAFQVLK
  inhibition at 5 µM: ≤ 0%
PI4KB; VPHTQAVVLNSKDK
  inhibition at 5 µM: 3.9%
FRAP
  inhibition at 5 µM: ≤ 0%
PKCa, PKCg
  % Inhibition: NB (NB = No Binding (≤ 0))
MAP3K4; Lys1, VYTCISVDTGELMAMKEIR
  inhibition at 5 µM: 8.6%
MAP3K4; Lys2, DIKGANIFLTSSGLIK
  inhibition at 5 µM: 7.1%
TNK1
  inhibition at 5 µM: 1.9%
NuaK1
  inhibition at 5 µM: ≤ 0%
